Measurements from patent US20190365745A1, “USE OF CHRONIC TREATMENT WITH ATR INHIBITORS TO SENSITIZE CANCER CELLS TO PARP INHIBITORS” (Cornell University, priority 2018, published 2019).

Legend:
[1] = test system: U2OS cells; experiment: SILAC/MS proteomic analysis of nuclear proteins (protein abundance); type: cell-based, Human; conditions: U2OS nuclear proteome; 5 μM ATRi, 8 days vs untreated
Procedure: FIG. 5A is a schematic diagram of the SILAC/MS experiment. FIG. 5B is a quadrant diagram of the SILAC/MS experiment. Each dot represents a different identified protein. Proteins with abundance reduced two-fold or more after ATRi treatment are shown in the upper-left corner (white quadrant). FIG. 5C is a WB analysis of U2OS cells after 8 days of chronic treatment with 5 μM of ATRi or ATMi. FIG. 5D is a time course WB analysis of U2OS cells during chronic treatment with 5 μM ATRi. FIG. 5E is a WB analysis of U2OS cells at distinct cell cycle stages. Cells were treated with 1 mM hydroxyurea (HU) or 50 ng/ml nocodazole (Noc) for 24 hours. HU treated cells were released for 2.5 hours in HU-free media. FIG. 5F is a WB analysis of U2OS cells untreated or treated for 8 days with 5 μM ATRi.
For quantitative proteomic analysis, U2OS cells chronically treated with DMSO or ATR inhibitor were cultured, respectively, in “light” or “heavy” SILAC DMEM media (ThermoFisher Scientific 88425) supplemented with 10% dialyzed FBS and penicillin/streptomycin. “Light” SILAC media was supplemented with “light” (normal) arginine ^12C6, […], while “heavy” SILAC media contained “heavy” lysine ^13C6, ^15N2 and “heavy” arginine ^13C6, ^15N4. […] HILIC fractions were dried and reconstituted in 0.1% trifluoroacetic acid and analyzed using a Q-Exactive Orbitrap and Lumos mass spectrometer. […]

[2] = test system: U2OS cells; experiment: Cycloheximide protein stability western blot; type: cell-based, Human; conditions: CHX 50 μg/ml with 5 μM ATRi vs CHX alone
Procedure: Fresh media containing CHX or CHX/ATRi was added every 6 hours. The right panel is a bar graph generated by measuring the intensity of the BRCA1 band from three independent experiments. Two-tailed Student's t-test was used for the statistics (Error bars=SD, N=3, ****P-value<0.0001).
(§1) Cells were harvested and lysed in modified radioimmunoprecipitation assay (RIPA) buffer (50 mM Tris-HCl pH 7.5, 150 mM NaCl, 1% tergitol, 0.25% sodium deoxycholate, 5 mM EDTA) supplemented with Complete EDTA-free protease inhibitor cocktail (Roche), 1 mM PMSF, 5 mM sodium fluoride, 10 mM β-glycerol-phosphate and 0.4 mM sodium orthovanadate. Whole cell lysates were cleared with 5 minute centrifugation at 13,000 rpm at 4° C. and mixed with 3×SDS sample buffer (bromophenol blue, stacking gel buffer, 50% glycerol, 3% SDS and 60 mM DTT). After being resolved on SDS-PAGE gels, proteins were then transferred onto polyvinylidene difluoride (PVDF) membranes and detected with designated antibodies.

[3] = test system: U2OS cancer cells; experiment: Crystal violet staining survival assay; type: cell-based, Human; conditions: after 8 days of treatment, 2 or 8 days drug-free
Procedure: First, cells were treated for 5 days with either DMSO or 5 μM ATR inhibitor. Next, 1×10^5 cells of each cell type were plated onto a 10 cm dish and further treated with DMSO, ATR inhibitor and/or PARP inhibitor for additional 3 days. Cells were either fixed or allowed to recover after additional 2 or 8 days in drug-free media.
First, hTERT RPE-1, U2OS, HCT116, HeLa, A2780, or U87 cells were treated for 5 days with either DMSO or 5 μM ATR inhibitor. Next, 1×10^5 cells of each cell type were plated onto a 10 cm dish and further treated with DMSO, ATR inhibitor, and/or PARP inhibitor for an additional 3 days. Cells were then washed with PBS and either fixed in 100% methanol for 15 minutes at 4° C. or fixed after additional 2 or 8 days of culture in drug-free media. Fixed plates were stained with 0.1% crystal violet solution overnight followed by a distilled water wash. Pictures were taken after the plates were dried. For quantitation of cell viability, total viable cells were counted using a hematocytometer after indicated treatment.

[4] = target: T1, ATR (Homo sapiens, UniProt Q13535); experiment: Western blot of phospho-CHK1(S345) in HU-treated cells; type: cell-based; conditions: 5 μM ATRi; HU-treated U2OS cells
T1 construct: endogenous in cells; host or cells: U2OS (human osteosarcoma)
Procedure: FIG. 3 is a Western Blot (“WB”) of U2OS cells treated with ATRi for 30 minutes prior to a 3-hour HU treatment. WB analysis was performed against phospho-CHK1(S345), CHK1 and Actin.
as §1

T1 sequence (Q13535 whole entry): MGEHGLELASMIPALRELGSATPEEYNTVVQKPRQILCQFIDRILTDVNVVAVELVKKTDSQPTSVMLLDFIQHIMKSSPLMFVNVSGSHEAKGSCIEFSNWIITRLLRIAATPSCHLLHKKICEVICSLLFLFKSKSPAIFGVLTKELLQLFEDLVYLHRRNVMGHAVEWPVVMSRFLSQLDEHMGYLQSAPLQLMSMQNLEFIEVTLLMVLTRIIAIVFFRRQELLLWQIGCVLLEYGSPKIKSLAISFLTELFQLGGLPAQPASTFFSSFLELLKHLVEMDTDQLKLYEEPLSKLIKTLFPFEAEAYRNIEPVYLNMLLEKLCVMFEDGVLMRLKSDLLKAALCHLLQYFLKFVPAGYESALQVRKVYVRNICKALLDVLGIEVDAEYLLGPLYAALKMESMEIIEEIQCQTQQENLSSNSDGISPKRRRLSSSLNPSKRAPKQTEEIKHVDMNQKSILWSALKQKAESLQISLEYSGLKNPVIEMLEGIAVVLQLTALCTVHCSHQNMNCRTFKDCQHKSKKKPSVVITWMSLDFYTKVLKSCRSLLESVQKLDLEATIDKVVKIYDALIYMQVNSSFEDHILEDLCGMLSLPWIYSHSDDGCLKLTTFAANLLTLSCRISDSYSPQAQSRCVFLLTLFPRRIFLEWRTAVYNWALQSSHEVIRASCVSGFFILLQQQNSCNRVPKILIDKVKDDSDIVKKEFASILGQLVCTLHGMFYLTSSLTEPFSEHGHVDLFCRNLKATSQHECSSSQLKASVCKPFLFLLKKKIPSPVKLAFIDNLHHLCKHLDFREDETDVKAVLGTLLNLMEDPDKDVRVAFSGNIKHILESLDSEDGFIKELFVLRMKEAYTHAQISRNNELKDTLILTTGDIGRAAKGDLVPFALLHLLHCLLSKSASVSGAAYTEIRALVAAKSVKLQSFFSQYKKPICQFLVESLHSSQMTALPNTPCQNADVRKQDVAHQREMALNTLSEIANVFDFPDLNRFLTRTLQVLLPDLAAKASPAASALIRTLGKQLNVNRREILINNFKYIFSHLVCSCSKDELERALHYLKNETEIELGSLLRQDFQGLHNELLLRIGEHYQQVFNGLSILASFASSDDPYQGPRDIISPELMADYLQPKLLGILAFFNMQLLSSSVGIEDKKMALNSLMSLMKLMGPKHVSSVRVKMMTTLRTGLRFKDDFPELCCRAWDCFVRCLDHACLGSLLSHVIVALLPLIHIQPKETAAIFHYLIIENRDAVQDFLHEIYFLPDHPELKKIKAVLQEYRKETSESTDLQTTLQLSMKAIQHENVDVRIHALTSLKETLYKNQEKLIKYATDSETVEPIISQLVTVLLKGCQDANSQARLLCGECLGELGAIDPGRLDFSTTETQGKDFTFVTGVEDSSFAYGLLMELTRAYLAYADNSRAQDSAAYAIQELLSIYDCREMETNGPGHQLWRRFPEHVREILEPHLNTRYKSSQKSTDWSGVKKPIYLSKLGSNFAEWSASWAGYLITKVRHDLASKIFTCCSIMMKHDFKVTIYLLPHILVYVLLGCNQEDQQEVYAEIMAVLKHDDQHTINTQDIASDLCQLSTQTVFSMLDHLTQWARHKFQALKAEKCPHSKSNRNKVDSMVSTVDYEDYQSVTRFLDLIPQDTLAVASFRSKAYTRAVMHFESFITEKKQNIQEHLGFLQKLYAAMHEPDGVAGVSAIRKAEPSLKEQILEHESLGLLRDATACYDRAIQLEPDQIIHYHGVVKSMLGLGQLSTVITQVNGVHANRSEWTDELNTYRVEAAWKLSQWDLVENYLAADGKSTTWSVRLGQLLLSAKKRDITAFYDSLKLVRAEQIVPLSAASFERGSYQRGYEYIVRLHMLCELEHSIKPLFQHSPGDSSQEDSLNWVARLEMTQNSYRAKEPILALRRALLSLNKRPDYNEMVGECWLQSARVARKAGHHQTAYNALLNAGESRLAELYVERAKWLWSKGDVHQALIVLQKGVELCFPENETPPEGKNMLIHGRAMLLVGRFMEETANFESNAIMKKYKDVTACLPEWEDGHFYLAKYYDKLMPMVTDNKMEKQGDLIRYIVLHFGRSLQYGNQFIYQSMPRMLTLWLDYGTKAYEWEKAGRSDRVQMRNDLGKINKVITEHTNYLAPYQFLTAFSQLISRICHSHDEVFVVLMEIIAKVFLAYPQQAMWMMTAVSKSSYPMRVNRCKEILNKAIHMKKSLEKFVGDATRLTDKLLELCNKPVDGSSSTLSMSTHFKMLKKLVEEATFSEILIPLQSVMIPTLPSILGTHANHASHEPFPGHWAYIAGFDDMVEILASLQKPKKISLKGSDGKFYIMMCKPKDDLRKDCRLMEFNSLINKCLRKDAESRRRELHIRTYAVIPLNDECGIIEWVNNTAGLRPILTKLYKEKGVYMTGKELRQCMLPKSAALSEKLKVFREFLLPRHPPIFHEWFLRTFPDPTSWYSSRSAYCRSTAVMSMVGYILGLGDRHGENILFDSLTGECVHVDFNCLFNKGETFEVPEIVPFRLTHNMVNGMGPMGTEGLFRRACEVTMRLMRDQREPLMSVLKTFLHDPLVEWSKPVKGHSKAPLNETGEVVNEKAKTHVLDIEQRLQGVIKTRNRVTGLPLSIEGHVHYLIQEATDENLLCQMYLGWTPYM
T1 sequence (Q8WXE1 whole entry partner): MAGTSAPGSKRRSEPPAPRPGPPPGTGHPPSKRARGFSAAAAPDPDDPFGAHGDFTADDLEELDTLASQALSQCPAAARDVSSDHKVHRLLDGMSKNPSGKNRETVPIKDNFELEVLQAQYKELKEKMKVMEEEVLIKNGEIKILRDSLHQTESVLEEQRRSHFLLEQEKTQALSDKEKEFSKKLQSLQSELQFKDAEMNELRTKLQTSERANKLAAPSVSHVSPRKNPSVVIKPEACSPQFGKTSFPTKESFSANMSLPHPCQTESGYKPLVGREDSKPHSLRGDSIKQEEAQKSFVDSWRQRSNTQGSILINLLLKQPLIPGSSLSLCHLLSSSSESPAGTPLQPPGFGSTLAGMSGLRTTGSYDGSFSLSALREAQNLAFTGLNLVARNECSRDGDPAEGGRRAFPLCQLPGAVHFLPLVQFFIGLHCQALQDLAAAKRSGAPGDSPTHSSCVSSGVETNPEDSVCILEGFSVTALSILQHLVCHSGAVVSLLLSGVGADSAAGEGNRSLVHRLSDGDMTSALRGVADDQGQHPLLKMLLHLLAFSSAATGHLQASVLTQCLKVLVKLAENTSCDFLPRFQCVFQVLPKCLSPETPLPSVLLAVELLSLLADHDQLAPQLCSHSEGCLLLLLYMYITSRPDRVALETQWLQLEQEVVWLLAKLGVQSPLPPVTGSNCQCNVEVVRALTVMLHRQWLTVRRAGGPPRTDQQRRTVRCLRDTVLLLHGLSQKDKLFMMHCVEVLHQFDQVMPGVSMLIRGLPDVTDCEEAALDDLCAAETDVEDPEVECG

CS(=O)(=O)c1ccc(-c2cnc(N)c(C(=O)Nc3ccccc3)n2)cc1 [ATRi, VE-821]
Abundance of proteins required for HR-mediated repair, including BRCA1 and FANCJ (SILAC/MS) [1]: reduced | Abundance of the other HR proteins monitored in CHX-treated cells [2]: did not change | Protein levels of BRCA1 in CHX-treated cells [2]: decreased | Recovery in drug-free media (crystal violet) [3]: recovered after switching to drug-free media | ATR inhibition monitored by CHK1 phosphorylation [4]: almost complete ATR inhibition
